PubChem BioAssay (NCI)
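Grown in 96-well plates, cells were treated for 48 hours with each compound at five concentrations. Insufficient inhibition: endpoint recorded as highest concentration tested. At the TGI there is no net growth.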

Assays:
Assay in all cases: NCI anticancer screen, dose series, 48 h
MOLT-4 leukemia = test system: MOLT-4 leukemia
DMS 273 small cell lung = test system: DMS 273 small cell lung
OVCAR-8 ovarian = test system: OVCAR-8 ovarian
HOP-62 NSCLC = test system: HOP-62 NSCLC
TK-10 renal = test system: TK-10 renal
DLD-1 colon = test system: DLD-1 colon
SNB-78 CNS = test system: SNB-78 CNS
UACC-257 melanoma = test system: UACC-257 melanoma
DMS 114 small cell lung = test system: DMS 114 small cell lung
SK-MEL-5 melanoma = test system: SK-MEL-5 melanoma
UO-31 renal = test system: UO-31 renal
EKVX NSCLC = test system: EKVX NSCLC
HCC-2998 colon = test system: HCC-2998 colon
ACHN renal = test system: ACHN renal
LXFL 529 NSCLC = test system: LXFL 529 NSCLC
HL-60(TB) leukemia = test system: HL-60(TB) leukemia
HT29 colon = test system: HT29 colon
SF-268 CNS = test system: SF-268 CNS
SN12C renal = test system: SN12C renal
SK-OV-3 ovarian = test system: SK-OV-3 ovarian
SNB-75 CNS = test system: SNB-75 CNS
CAKI-1 renal = test system: CAKI-1 renal
NCI-H460 lung = test system: NCI-H460 lung
U251 CNS = test system: U251 CNS
OVCAR-3 ovarian = test system: OVCAR-3 ovarian
NCI-H522 lung = test system: NCI-H522 lung
NCI-H23 lung = test system: NCI-H23 lung
OVCAR-4 ovarian = test system: OVCAR-4 ovarian
A549 NSCLC = test system: A549 NSCLC
786-0 renal = test system: 786-0 renal
MALME-3M melanoma = test system: MALME-3M melanoma
XF 498 CNS = test system: XF 498 CNS
SW-620 colon = test system: SW-620 colon
UACC-62 melanoma = test system: UACC-62 melanoma
SK-MEL-28 melanoma = test system: SK-MEL-28 melanoma
COLO 205 colon = test system: COLO 205 colon
HCT-15 colon = test system: HCT-15 colon
K-562 leukemia = test system: K-562 leukemia
CCRF-CEM leukemia = test system: CCRF-CEM leukemia
RXF 393 renal = test system: RXF 393 renal
IGROV1 ovarian = test system: IGROV1 ovarian
KM20L2 colon = test system: KM20L2 colon
SF-295 CNS = test system: SF-295 CNS
LOX IMVI melanoma = test system: LOX IMVI melanoma
SF-539 CNS = test system: SF-539 CNS
SK-MEL-2 melanoma = test system: SK-MEL-2 melanoma
OVCAR-5 ovarian = test system: OVCAR-5 ovarian
SNB-19 CNS = test system: SNB-19 CNS
HOP-92 NSCLC = test system: HOP-92 NSCLC
HOP-18 NSCLC = test system: HOP-18 NSCLC
HCT-116 colon = test system: HCT-116 colon
A498 renal = test system: A498 renal
RPMI-8226 leukemia = test system: RPMI-8226 leukemia
M19-MEL melanoma = test system: M19-MEL melanoma
KM12 colon = test system: KM12 colon
M14 melanoma = test system: M14 melanoma
SR leukemia = test system: SR leukemia
NCI-H226 lung = test system: NCI-H226 lung

With `COC(=O)CCC(=O)Nc1cccc(C(F)(F)F)c1` the TGI (MOLT-4 leukemia) was > 100 µM, the TGI (DMS 273 small cell lung) was > 100 µM and the TGI (OVCAR-8 ovarian) was > 100 µM. For the same compound, the TGI (HOP-62 NSCLC) was > 100 µM, the TGI (TK-10 renal) was > 100 µM and the TGI (DLD-1 colon) was > 100 µM. The TGI (SNB-78 CNS) was > 100 µM, the TGI (UACC-257 melanoma) was > 100 µM and the TGI (DMS 114 small cell lung) was > 100 µM. The TGI (SK-MEL-5 melanoma) was > 100 µM, the TGI (UO-31 renal) was > 100 µM and the TGI (EKVX NSCLC) was > 100 µM. The TGI (HCC-2998 colon) was > 100 µM, the TGI (ACHN renal) was > 100 µM and the TGI (LXFL 529 NSCLC) was > 100 µM. For the same compound, the TGI (HL-60(TB) leukemia) was > 100 µM, the TGI (HT29 colon) was > 100 µM and the TGI (SF-268 CNS) was > 100 µM. The TGI (SN12C renal) was > 100 µM, the TGI (SK-OV-3 ovarian) was > 100 µM and the TGI (SNB-75 CNS) was > 100 µM. The TGI (CAKI-1 renal) was > 100 µM, the TGI (NCI-H460 lung) was > 100 µM and the TGI (U251 CNS) was > 100 µM. The TGI (OVCAR-3 ovarian) was > 100 µM, the TGI (NCI-H522 lung) was > 100 µM and the TGI (NCI-H23 lung) was > 100 µM. For the same compound, the TGI (OVCAR-4 ovarian) was > 100 µM, the TGI (A549 NSCLC) was > 100 µM and the TGI (786-0 renal) was > 100 µM. The TGI (MALME-3M melanoma) was > 100 µM, the TGI (XF 498 CNS) was > 100 µM and the TGI (SW-620 colon) was > 100 µM. The TGI (UACC-62 melanoma) was > 100 µM, the TGI (SK-MEL-28 melanoma) was > 100 µM and the TGI (COLO 205 colon) was > 100 µM. For the same compound, the TGI (HCT-15 colon) was > 100 µM, the TGI (K-562 leukemia) was > 100 µM and the TGI (CCRF-CEM leukemia) was > 100 µM. The TGI (RXF 393 renal) was > 100 µM, the TGI (IGROV1 ovarian) was > 100 µM and the TGI (KM20L2 colon) was > 100 µM. For the same compound, the TGI (SF-295 CNS) was > 100 µM, the TGI (LOX IMVI melanoma) was > 100 µM and the TGI (SF-539 CNS) was > 100 µM. For the same compound, the TGI (SK-MEL-2 melanoma) was > 100 µM, the TGI (OVCAR-5 ovarian) was > 100 µM and the TGI (SNB-19 CNS) was > 100 µM. The TGI (HOP-92 NSCLC) was > 100 µM, the TGI (HOP-18 NSCLC) was > 100 µM and the TGI (HCT-116 colon) was > 100 µM. For the same compound, the TGI (A498 renal) was > 100 µM, the TGI (RPMI-8226 leukemia) was > 100 µM and the TGI (M19-MEL melanoma) was > 100 µM. The TGI (KM12 colon) was > 100 µM and the TGI (M14 melanoma) was > 100 µM.
For `COc1cccc(-c2cc(C(=O)Nc3ccc(Cl)cc3)nc(N)n2)c1`, the TGI (MOLT-4 leukemia) was > 100 µM, the TGI (DMS 273 small cell lung) was > 100 µM and the TGI (OVCAR-8 ovarian) was > 100 µM. The TGI (HOP-62 NSCLC) was > 100 µM, the TGI (TK-10 renal) was > 100 µM and the TGI (DLD-1 colon) was > 100 µM. For the same compound, the TGI (SNB-78 CNS) was > 100 µM, the TGI (UACC-257 melanoma) was > 100 µM and the TGI (DMS 114 small cell lung) was > 100 µM. For the same compound, the TGI (SK-MEL-5 melanoma) was > 100 µM, the TGI (UO-31 renal) was > 100 µM and the TGI (EKVX NSCLC) was > 100 µM. The TGI (HCC-2998 colon) was > 100 µM, the TGI (ACHN renal) was > 100 µM and the TGI (LXFL 529 NSCLC) was > 100 µM. For the same compound, the TGI (HL-60(TB) leukemia) was > 100 µM, the TGI (HT29 colon) was > 100 µM and the TGI (SF-268 CNS) was > 100 µM. For the same compound, the TGI (SN12C renal) was > 100 µM, the TGI (SK-OV-3 ovarian) was > 100 µM and the TGI (SNB-75 CNS) was 68.1 µM. The TGI (CAKI-1 renal) was > 100 µM, the TGI (NCI-H460 lung) was > 100 µM and the TGI (SR leukemia) was > 100 µM. For the same compound, the TGI (U251 CNS) was > 100 µM, the TGI (OVCAR-3 ovarian) was > 100 µM and the TGI (NCI-H522 lung) was > 100 µM. The TGI (NCI-H23 lung) was > 100 µM, the TGI (NCI-H226 lung) was > 100 µM and the TGI (OVCAR-4 ovarian) was > 100 µM. The TGI (A549 NSCLC) was > 100 µM, the TGI (786-0 renal) was > 100 µM and the TGI (MALME-3M melanoma) was > 100 µM. The TGI (XF 498 CNS) was > 100 µM, the TGI (SW-620 colon) was > 100 µM and the TGI (UACC-62 melanoma) was > 100 µM. The TGI (SK-MEL-28 melanoma) was > 100 µM, the TGI (COLO 205 colon) was 71.4 µM and the TGI (HCT-15 colon) was > 100 µM. The TGI (K-562 leukemia) was > 100 µM, the TGI (CCRF-CEM leukemia) was > 100 µM and the TGI (RXF 393 renal) was > 100 µM. For the same compound, the TGI (IGROV1 ovarian) was > 100 µM, the TGI (KM20L2 colon) was > 100 µM and the TGI (SF-295 CNS) was > 100 µM. The TGI (LOX IMVI melanoma) was > 100 µM, the TGI (SF-539 CNS) was > 100 µM and the TGI (SK-MEL-2 melanoma) was > 100 µM. The TGI (OVCAR-5 ovarian) was > 100 µM, the TGI (SNB-19 CNS) was > 100 µM and the TGI (HOP-92 NSCLC) was > 100 µM. For the same compound, the TGI (HOP-18 NSCLC) was > 100 µM, the TGI (HCT-116 colon) was > 100 µM and the TGI (A498 renal) was > 100 µM. The TGI (RPMI-8226 leukemia) was > 100 µM, the TGI (M19-MEL melanoma) was > 100 µM and the TGI (KM12 colon) was > 100 µM. For the same compound, the TGI (M14 melanoma) was > 100 µM.
